Measured values published in PubChem BioAssay (NCI).
Values joined by “and” are separate entries in the source; they are usually repeats but may differ in a detail not shown here. Identical values can stand only once.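 Grown in 96-well plates, cells were treated for 48 hours with each compound at five concentrations. Insufficient inhibition: endpoint recorded as highest concentration tested. At the GI50, growth is halved. TGI is the concentration that stops growth completely.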

Assays:
Experiment in all cases: NCI tumour cell line growth inhibition, 48 h
HT29 colon = system: HT29 colon
PC-3 prostate = system: PC-3 prostate
SF-295 CNS = system: SF-295 CNS
UACC-62 melanoma = system: UACC-62 melanoma
SR leukemia = system: SR leukemia
OVCAR-4 ovarian = system: OVCAR-4 ovarian
MDA-MB-231 breast = system: MDA-MB-231 breast
NCI-H522 lung = system: NCI-H522 lung
HOP-92 NSCLC = system: HOP-92 NSCLC
NCI-H226 lung = system: NCI-H226 lung

| SMILES | GI50 (HT29 colon) [µM] | TGI (HT29 colon) | GI50 (PC-3 prostate) [µM] | TGI (PC-3 prostate) [µM] | GI50 (SF-295 CNS) | TGI (SF-295 CNS) [µM] | GI50 (UACC-62 melanoma) [µM] | TGI (UACC-62 melanoma) | GI50 (SR leukemia) | TGI (SR leukemia) | GI50 (OVCAR-4 ovarian) [µM] | TGI (OVCAR-4 ovarian) | GI50 (MDA-MB-231 breast) [µM] | TGI (MDA-MB-231 breast) [µM] | GI50 (NCI-H522 lung) [µM] | TGI (NCI-H522 lung) | GI50 (HOP-92 NSCLC) [µM] | TGI (HOP-92 NSCLC) | GI50 (NCI-H226 lung) | TGI (NCI-H226 lung) |
| --- | --- | --- | --- | --- | --- | --- | --- | --- | --- | --- | --- | --- | --- | --- | --- | --- | --- | --- | --- | --- |
| O=P(Oc1ccccc1)(Oc1ccccc1)C(O)c1ccccc1 (stereo unspecified) | 78.1 | > 100 µM | 35.8 | > 100 | 29.3 µM | > 100 | 44.8 | > 100 µM | 62.3 µM | > 100 µM | 58.2 | > 100 µM | 71.3 | > 100 | 25.4 | > 100 µM |  |  |  |  |
| O=C(CCl)Nc1ccccc1SCc1cc(Cl)cc2c1OCOC2 | 4.27 | 14.5 µM | 11.4 | 25.9 | 20 µM | 41.9 | 5.44 | 19.9 µM |  |  | 3.14 | 12.5 µM | 5.97 | 28 | 1.85 | 4 µM | 3.17 | 17.9 µM | 11.2 µM | 35.6 µM |
| CC(=O)CC(=O)CCCC(=O)Nc1ccc(Cl)cc1Cl |  | > 100 µM |  |  |  | > 100 |  | > 100 µM |  | > 100 µM |  | > 100 µM |  |  |  | > 100 µM |  | > 100 µM |  | > 100 µM |
| Cc1ccc(C)c(NC(=O)CC2C(=O)Nc3ccccc3S2(=O)=O)c1 (stereo unspecified) |  | > 100 µM |  |  |  | > 100 |  | > 100 µM |  | > 100 µM |  | 38.7 µM |  |  |  |  |  | > 100 µM |  | > 100 µM |
| O=C1C(c2ccc(Cl)cc2)=[N+]([O-])c2ccccc21 |  | 43.6 µM |  |  |  | 42.2 |  | 32.2 µM |  | > 100 µM |  |  |  |  |  | 21.9 µM |  |  |  | 47 µM |
| O=[N+]([O-])c1ccc(OCCNc2cccc3ccccc23)cc1 |  | > 100 µM |  |  |  | > 100 |  | > 100 µM |  |  |  | > 100 µM |  |  |  | > 100 µM |  | > 100 µM |  | > 100 µM |
| C=CC[P@@]1(=O)O[C@H](c2ccccc2)C(C)N1C(C)C (stereo partly specified) |  | > 100 µM |  |  |  | > 100 |  | > 100 µM |  | > 100 µM |  | > 100 µM |  |  |  |  |  |  |  | > 100 µM |
| COC(=O)[C@H](C)[C@H]1CC[C@@](C)([C@H]2CC3C(C)(C)[C@H]4CCC(C)=C[C@H]4C[C@@]3(C)O2)OO1 (stereo partly specified) |  | 27.2 µM |  |  |  | 28.4 |  | 35.6 µM |  | 30.5 µM |  | 30.1 µM |  |  |  | 3.32 µM |  | 12.4 µM |  | 28.9 µM |
| COc1cc2c3c(n(CCCO)c(=O)c2cc1OC)-c1cc2c(cc1C3=O)OCO2 | > 46.5 | > 100 µM | > 24.7 | > 81.7 | 1.17 µM | > 48.3 | 2.45 | 25.3 µM |  |  | > 87.3 | > 100 µM | 23.4 | > 76.6 | > 40.8 | > 100 µM | 0.226 | 11.4 µM | 3.85 µM | 50.9 µM |
| CS(=O)(=O)c1ccc(Oc2nccc(-c3c(-c4ccc(F)cc4)ncn3C3CCNCC3)n2)cc1 | > 22.2 | > 25 µM | > 25 | > 25 | > 25 µM | > 25 | > 25 | > 25 µM |  |  | > 25 | > 25 µM | > 25 | > 25 | > 25 | > 25 µM |  |  |  |  |
| C=C(CN1CCc2ccccc2C1)c1ccc(/C=C/C(=O)Nc2ccccc2N)cc1 | 59.9 | > 100 µM | 4.05 | > 100 | 3.09 µM | 40.6 | 4.99 | 22.8 µM |  |  | 45.4 | > 100 µM | 4.36 | 48.3 | 0.783 | 14.7 µM | 8 | 52.8 µM | 2.64 µM | 25.4 µM |
| CC1=C2C(=CC(C)(CO)C2O)C(=O)C(C)(O)C12CC2 (stereo unspecified) |  | 0.0446 µM |  |  |  | 0.00392 |  | 0.00784 µM |  | 0.146 µM | 0.00378 | 0.0131 µM |  |  | 0.00088 | 0.00421 µM |  | 0.0144 µM |  | 0.015 µM |
| CC1(c2ccccc2)CC12C(=O)NC(=O)NC2=O (stereo unspecified) |  | > 100 µM |  |  |  | > 100 |  | > 100 µM |  | > 100 µM |  | > 100 µM |  |  |  | > 100 µM |  | > 100 µM |  | > 100 µM |
| O=C1CC2(CCCc3sccc32)C(=O)N1 (stereo unspecified) |  | > 100 µM |  | > 100 |  | > 100 |  | > 100 µM |  |  |  | > 100 µM |  | > 100 |  | > 100 µM |  | > 100 µM |  | > 100 µM |
| COc1cccc(/C=C\c2cc(OC)c(OC)c(OC)c2)c1 |  | 67.9 µM |  |  |  |  |  | > 100 µM |  | 27.5 µM |  | > 100 µM |  |  |  | 1.58 µM |  | > 100 µM |  | 83.9 µM |
| Cc1c2cc[n+](C)cc2c(C)c2c1[nH]c1ccc(OC(C)C)cc12 |  | 18.5 µM and 24.4 µM |  |  | 0.231 µM and 1.7 µM |  |  | 8.04 µM and 12.7 µM | 2.34 µM and 9.55 µM | 10.5 µM and > 54.3 µM |  | 17.4 µM and > 45.2 µM |  |  |  | 3.8 µM and 8.1 µM |  | 13.5 µM and 16.8 µM | 0.395 µM and 1.07 µM | 2.42 µM and 6.12 µM |
| Cc1ccc(C2=[N+]([O-])c3ccccc3C2=O)cc1 |  | > 65 µM |  |  |  | > 72.5 |  | 33.1 µM |  | > 100 µM |  |  |  |  |  | 32.4 µM |  | 39.2 µM |  | > 100 µM |
| N#C[C@]12CC3(CC[C@H]1CC1(C2)OCCO1)OCCO3 |  |  |  |  |  |  |  | > 100 µM |  | > 100 µM |  | > 100 µM |  |  |  | > 100 µM |  |  |  | > 100 µM |
| COc1cccc2c(Nc3ccc(C(=O)NCCNCCO)cc3)cc(-c3ccccc3)nc12 | 36 | > 100 µM | 35.4 | > 100 | 40.9 µM | > 100 | 62.4 | > 100 µM |  |  | 13.5 | 43.7 µM | 25.5 | 73.5 | 20.3 | 53.8 µM | 16 | 51.4 µM | 56.1 µM | > 100 µM |
| N.N.NCCCCN.O=C([O-])CC(=O)[O-].O=C([O-])CC(=O)[O-].[Pt+4].[Pt+4] | > 100 | > 100 µM |  |  | > 100 µM | > 100 | 77.4 | > 100 µM | 30.4 µM | > 100 µM | > 100 | > 100 µM |  |  | 18.2 | 62.5 µM | > 100 | > 100 µM | > 100 µM | > 100 µM |
